Data as given in ChEMBL document CHEMBL1909046, “DrugMatrix in vitro pharmacology data”.

Assays:
[1] = molecular target: T1, C-X-C chemokine receptor type 1 (Homo sapiens, UniProt P25024); note: in other assays of this panel Not Active means under 50% inhibition at 10 µM
T1 sequence (P25024 whole entry): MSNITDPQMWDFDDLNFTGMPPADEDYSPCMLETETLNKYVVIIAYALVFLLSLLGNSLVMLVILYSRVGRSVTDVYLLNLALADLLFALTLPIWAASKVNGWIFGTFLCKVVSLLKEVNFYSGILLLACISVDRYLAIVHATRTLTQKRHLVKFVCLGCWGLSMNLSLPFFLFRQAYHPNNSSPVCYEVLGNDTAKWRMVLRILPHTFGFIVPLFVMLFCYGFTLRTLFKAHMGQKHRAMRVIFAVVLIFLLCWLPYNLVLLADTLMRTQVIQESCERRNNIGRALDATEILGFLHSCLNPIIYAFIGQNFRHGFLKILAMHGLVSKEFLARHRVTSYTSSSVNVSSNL

[2] = molecular target: Vasopressin V1a receptor (Homo sapiens, UniProt P37288); type: cell membranes, Membrane; conditions: hek293; note: in other assays of this panel Not Active means under 50% inhibition at 10 µM
[3] = DRUGMATRIX: Platelet-Derived Growth Factor (PDGF) radioligand binding (ligand: [125I] PDGF); type: cell-based; conditions: nih3t3; Not Active = under 50% inhibition at 10 µM
[4] = DRUGMATRIX: Nicotinic Acetylcholine radioligand binding (ligand: [125I] Epibatidine); type: cell membranes, Membrane; conditions: imr-32; Not Active = under 50% inhibition at 10 µM
[5] = molecular target: T2, C-C chemokine receptor type 4 (Homo sapiens, UniProt P51679); type: cell membranes, Membrane; conditions: chem-1; note: in other assays of this panel Not Active means under 50% inhibition at 10 µM
T2 sequence (P51679 whole entry): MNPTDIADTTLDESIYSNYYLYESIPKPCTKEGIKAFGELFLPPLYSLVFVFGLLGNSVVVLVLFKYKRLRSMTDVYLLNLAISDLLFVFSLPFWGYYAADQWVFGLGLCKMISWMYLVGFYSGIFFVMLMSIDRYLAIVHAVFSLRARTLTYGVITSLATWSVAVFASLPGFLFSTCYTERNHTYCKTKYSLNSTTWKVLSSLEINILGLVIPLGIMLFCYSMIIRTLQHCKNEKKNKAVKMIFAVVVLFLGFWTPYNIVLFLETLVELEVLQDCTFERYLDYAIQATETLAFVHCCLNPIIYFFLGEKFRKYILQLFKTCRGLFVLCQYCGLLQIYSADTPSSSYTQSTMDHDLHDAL

[6] = molecular target: Cannabinoid receptor 1 (Homo sapiens, UniProt P21554); type: cell membranes, Membrane; conditions: chem-1; note: in other assays of this panel Not Active means under 50% inhibition at 10 µM
[7] = molecular target: C-C chemokine receptor type 5 (Homo sapiens, UniProt P51681); type: cell membranes, Membrane; conditions: hek293; note: in other assays of this panel Not Active means under 50% inhibition at 10 µM
[8] = molecular target: Mitogen-activated protein kinase 14 (Homo sapiens, UniProt Q16539); parameters: species or system Escherichia coli
Chain of Mitogen-activated protein kinase 14 (Q16539 whole entry): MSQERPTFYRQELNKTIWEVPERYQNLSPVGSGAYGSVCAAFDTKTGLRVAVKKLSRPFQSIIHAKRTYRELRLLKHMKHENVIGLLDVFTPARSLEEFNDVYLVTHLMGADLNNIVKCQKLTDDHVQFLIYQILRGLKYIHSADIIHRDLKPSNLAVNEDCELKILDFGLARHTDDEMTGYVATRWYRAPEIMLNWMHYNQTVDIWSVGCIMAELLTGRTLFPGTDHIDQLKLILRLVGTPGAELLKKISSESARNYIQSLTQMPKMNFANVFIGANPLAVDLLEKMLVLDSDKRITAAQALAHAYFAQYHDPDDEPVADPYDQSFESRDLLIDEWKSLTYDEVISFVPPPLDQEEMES

Chain of Cannabinoid receptor 1 (P21554 whole entry): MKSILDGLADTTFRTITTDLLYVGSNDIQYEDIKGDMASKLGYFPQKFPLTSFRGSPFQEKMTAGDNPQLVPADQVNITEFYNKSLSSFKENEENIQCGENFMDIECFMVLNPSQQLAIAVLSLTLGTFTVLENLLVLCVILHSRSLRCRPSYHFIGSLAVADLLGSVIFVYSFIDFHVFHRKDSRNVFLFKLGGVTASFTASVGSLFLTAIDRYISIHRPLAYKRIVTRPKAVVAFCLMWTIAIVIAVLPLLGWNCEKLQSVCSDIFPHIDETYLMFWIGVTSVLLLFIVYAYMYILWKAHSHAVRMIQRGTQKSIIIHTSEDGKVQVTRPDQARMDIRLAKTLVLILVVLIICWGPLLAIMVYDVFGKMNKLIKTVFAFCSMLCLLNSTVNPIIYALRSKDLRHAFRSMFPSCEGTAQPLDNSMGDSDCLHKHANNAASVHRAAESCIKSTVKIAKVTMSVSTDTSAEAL
Chain of C-C chemokine receptor type 5 (P51681 whole entry): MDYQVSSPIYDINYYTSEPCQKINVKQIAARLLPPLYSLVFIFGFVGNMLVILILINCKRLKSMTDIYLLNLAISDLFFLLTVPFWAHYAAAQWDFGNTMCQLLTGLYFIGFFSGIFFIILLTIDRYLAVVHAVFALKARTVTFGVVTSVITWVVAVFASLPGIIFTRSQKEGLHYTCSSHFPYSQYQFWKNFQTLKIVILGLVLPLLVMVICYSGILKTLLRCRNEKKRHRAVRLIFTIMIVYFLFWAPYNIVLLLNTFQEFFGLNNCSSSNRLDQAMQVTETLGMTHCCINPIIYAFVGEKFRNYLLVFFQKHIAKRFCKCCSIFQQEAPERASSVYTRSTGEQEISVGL
Chain of Vasopressin V1a receptor (P37288 whole entry): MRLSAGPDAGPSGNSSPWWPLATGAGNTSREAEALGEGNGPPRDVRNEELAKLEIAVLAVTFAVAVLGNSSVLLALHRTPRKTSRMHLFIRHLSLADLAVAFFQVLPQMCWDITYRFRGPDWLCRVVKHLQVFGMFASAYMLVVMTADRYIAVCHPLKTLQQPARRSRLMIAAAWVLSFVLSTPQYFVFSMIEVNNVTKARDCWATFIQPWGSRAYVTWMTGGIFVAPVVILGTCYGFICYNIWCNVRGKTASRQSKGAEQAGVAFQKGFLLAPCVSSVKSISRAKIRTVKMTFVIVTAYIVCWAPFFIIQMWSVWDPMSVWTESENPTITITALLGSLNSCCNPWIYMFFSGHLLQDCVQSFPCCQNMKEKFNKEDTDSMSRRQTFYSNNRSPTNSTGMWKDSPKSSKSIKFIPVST

CCOC(=O)[C@H](CCc1ccccc1)N[C@@H](C)C(=O)N1CCC[C@H]1C(=O)O
IC50 [1]: Not Active
IC50 [2]: Not Active
IC50 [3]: Not Active
Ki [3]: Not Active
IC50 [4]: Not Active
Ki [4]: Not Active
IC50 [5]: Not Active
IC50 [6]: Not Active
IC50 [7]: Not Active
IC50 [8]: Not Active

POLYVINYL ALCOHOL
IC50 [1]: Not Active
Ki [1]: Not Active
IC50 [2]: Not Active
Ki [2]: Not Active
IC50 [3]: Not Active
Ki [3]: Not Active
IC50 [4]: Not Active
Ki [4]: Not Active
IC50 [5]: Not Active
Ki [5]: Not Active
IC50 [6]: Not Active
Ki [6]: Not Active
IC50 [7]: Not Active
Ki [7]: Not Active
IC50 [8]: Not Active
Ki [8]: Not Active

CCC[C@@H]1C[C@@H](C(=O)N[C@@H]([C@H]2O[C@H](SC)[C@H](O)[C@@H](O)[C@H]2O)[C@H](C)Cl)N(C)C1 [CLINDAMYCIN]
IC50 [1]: Not Active
IC50 [2]: Not Active
IC50 [3]: Not Active
Ki [3]: Not Active
IC50 [4]: Not Active
Ki [4]: Not Active
IC50 [5]: Not Active
IC50 [6]: Not Active
IC50 [7]: Not Active
IC50 [8]: Not Active

CN(Cc1cnc2nc(N)nc(N)c2n1)c1ccc(C(=O)N[C@@H](CCC(=O)O)C(=O)O)cc1 [METHOTREXATE]
IC50 [1]: Not Active
IC50 [2]: Not Active
IC50 [3]: Not Active
Ki [3]: Not Active
IC50 [4]: Not Active
Ki [4]: Not Active
IC50 [5]: Not Active
IC50 [6]: Not Active
IC50 [7]: Not Active
IC50 [8]: Not Active

CO[C@@]1(NC(=O)CSCC#N)C(=O)N2C(C(=O)O)=C(CSc3nnnn3C)CS[C@@H]21 [CEFMETAZOLE]
IC50 [1]: Not Active
IC50 [2]: Not Active
IC50 [3]: Not Active
Ki [3]: Not Active
IC50 [4]: Not Active
Ki [4]: Not Active
IC50 [5]: Not Active
IC50 [6]: Not Active
IC50 [7]: Not Active
IC50 [8]: Not Active

C[C@@H]1CC[C@H]2[C@@H](C)C(=O)O[C@@H]3O[C@@]4(C)CC[C@@H]1[C@]32OO4 [ARTEMISININ]
IC50 [1]: Not Active
IC50 [2]: Not Active
IC50 [3]: Not Active
Ki [3]: Not Active
IC50 [4]: Not Active
Ki [4]: Not Active
IC50 [5]: Not Active
IC50 [6]: Not Active
IC50 [7]: Not Active
IC50 [8]: Not Active

CC(C(=O)O)c1ccc(CC2CCCC2=O)cc1 (stereo not given) [LOXOPROFEN]
IC50 [1]: Not Active
IC50 [2]: Not Active
IC50 [3]: Not Active
Ki [3]: Not Active
IC50 [4]: Not Active
Ki [4]: Not Active
IC50 [5]: Not Active
IC50 [6]: Not Active
IC50 [7]: Not Active
IC50 [8]: Not Active

CCCCCC[C@H]1C(=O)O[C@H](C)[C@H](NC(=O)c2cccc(NC=O)c2O)C(=O)O[C@@H](C)[C@@H]1OC(=O)CC(C)C [ANTIMYCIN A]
IC50 [1]: Not Active
IC50 [2]: Not Active
IC50 [3]: Not Active
Ki [3]: Not Active
IC50 [4]: Not Active
Ki [4]: Not Active
IC50 [5]: Not Active
IC50 [6]: Not Active
IC50 [7]: Not Active
IC50 [8]: Not Active

C#C[C@]1(O)CC[C@H]2[C@@H]3CCc4cc(O)ccc4[C@H]3CC[C@@]21C [ETHINYL ESTRADIOL]
IC50 [1]: Not Active
IC50 [2]: Not Active
IC50 [3]: Not Active
Ki [3]: Not Active
IC50 [4]: Not Active
Ki [4]: Not Active
IC50 [5]: Not Active
IC50 [6]: Not Active
IC50 [7]: Not Active
IC50 [8]: Not Active

CC[C@H]1OC(=O)[C@H](C)[C@@H](O[C@H]2C[C@@](C)(OC)[C@@H](O)[C@H](C)O2)[C@H](C)[C@@H](O[C@@H]2O[C@H](C)C[C@H](N(C)C)[C@H]2O)[C@](C)(O)C[C@@H](C)CN(C)[C@H](C)[C@@H](O)[C@]1(C)O [AZITHROMYCIN]
IC50 [1]: Not Active
IC50 [2]: Not Active
IC50 [3]: Not Active
Ki [3]: Not Active
IC50 [4]: Not Active
Ki [4]: Not Active
IC50 [5]: Not Active
IC50 [6]: Not Active
IC50 [7]: Not Active
IC50 [8]: Not Active

COc1ccc2cc(CCC(C)=O)ccc2c1 [NABUMETONE]
IC50 [1]: Not Active
IC50 [2]: Not Active
IC50 [3]: Not Active
Ki [3]: Not Active
IC50 [4]: Not Active
Ki [4]: Not Active
IC50 [5]: Not Active
IC50 [6]: Not Active
IC50 [7]: Not Active
IC50 [8]: Not Active

CCCCC1C(=O)N(c2ccccc2)N(c2ccccc2)C1=O [PHENYLBUTAZONE]
IC50 [1]: Not Active
IC50 [2]: Not Active
IC50 [3]: Not Active
Ki [3]: Not Active
IC50 [4]: Not Active
Ki [4]: Not Active
IC50 [5]: Not Active
IC50 [6]: Not Active
IC50 [7]: Not Active
IC50 [8]: Not Active

C=C1/C(=C\C=C2/CCC[C@]3(C)[C@@H]([C@H](C)CCCC(C)C)CC[C@@H]23)C[C@@H](O)C[C@@H]1O [ALFACALCIDOL]
IC50 [1]: Not Active
IC50 [2]: Not Active
IC50 [3]: Not Active
Ki [3]: Not Active
IC50 [4]: Not Active
Ki [4]: Not Active
IC50 [5]: Not Active
IC50 [6]: Not Active
IC50 [7]: Not Active
IC50 [8]: Not Active

NC(=O)N1c2ccccc2C=Cc2ccccc21 [CARBAMAZEPINE]
IC50 [1]: Not Active
IC50 [2]: Not Active
IC50 [3]: Not Active
Ki [3]: Not Active
IC50 [4]: Not Active
Ki [4]: Not Active
IC50 [5]: Not Active
IC50 [6]: Not Active
IC50 [7]: Not Active
IC50 [8]: Not Active

COc1ccc(Cc2nccc3cc(OC)c(OC)cc23)cc1OC [PAPAVERINE]
IC50 [1]: Not Active
IC50 [2]: Not Active
IC50 [3]: Not Active
Ki [3]: Not Active
IC50 [4]: Not Active
Ki [4]: Not Active
IC50 [5]: Not Active
IC50 [6]: Not Active
IC50 [7]: Not Active
IC50 [8]: Not Active

CNC(=C[N+](=O)[O-])NCCSCc1csc(CN(C)C)n1 [NIZATIDINE]
IC50 [1]: Not Active
IC50 [2]: Not Active
IC50 [3]: Not Active
Ki [3]: Not Active
IC50 [4]: Not Active
Ki [4]: Not Active
IC50 [5]: Not Active
IC50 [6]: Not Active
IC50 [7]: Not Active
IC50 [8]: Not Active

COc1ccccc1OCC(O)CO (stereo not given) [GUAIFENESIN]
IC50 [1]: Not Active
IC50 [2]: Not Active
IC50 [3]: Not Active
Ki [3]: Not Active
IC50 [4]: Not Active
Ki [4]: Not Active
IC50 [5]: Not Active
IC50 [6]: Not Active
IC50 [7]: Not Active
IC50 [8]: Not Active

O=C(c1ccccc1Cl)N1CCC(Cc2ccccc2)CC1
IC50 [1]: Not Active
IC50 [2]: Not Active
IC50 [3]: Not Active
Ki [3]: Not Active
IC50 [4]: Not Active
Ki [4]: Not Active
IC50 [5]: Not Active
IC50 [6]: Not Active
IC50 [7]: Not Active
IC50 ([8]; read-out: IC50): 833 nM

Cc1cccc(Nc2cc(Cl)nc(SCC(=O)O)n2)c1C [PIRINIXIC ACID]
IC50 [1]: Not Active
IC50 [2]: Not Active
IC50 [3]: Not Active
Ki [3]: Not Active
IC50 [4]: Not Active
Ki [4]: Not Active
IC50 [5]: Not Active
IC50 [6]: Not Active
IC50 [7]: Not Active
IC50 [8]: Not Active

CC(CCc1ccc(O)cc1)NCCc1ccc(O)c(O)c1 (stereo not given) [DOBUTAMINE]
IC50 [1]: Not Active
IC50 [2]: Not Active
IC50 [3]: Not Active
Ki [3]: Not Active
IC50 [4]: Not Active
Ki [4]: Not Active
IC50 [5]: Not Active
IC50 [6]: Not Active
IC50 [7]: Not Active
IC50 [8]: Not Active

CC(C)(Sc1cc(C(C)(C)C)c(O)c(C(C)(C)C)c1)Sc1cc(C(C)(C)C)c(O)c(C(C)(C)C)c1 [PROBUCOL]
IC50 [1]: Not Active
IC50 [2]: Not Active
IC50 [3]: Not Active
Ki [3]: Not Active
IC50 [4]: Not Active
Ki [4]: Not Active
IC50 [5]: Not Active
IC50 [6]: Not Active
IC50 [7]: Not Active
IC50 [8]: Not Active

C/C=C\c1ccc(O)c(OC)c1 [ISOEUGENOL]
IC50 [1]: Not Active
IC50 [2]: Not Active
IC50 [3]: Not Active
Ki [3]: Not Active
IC50 [4]: Not Active
Ki [4]: Not Active
IC50 [5]: Not Active
IC50 [6]: Not Active
IC50 [7]: Not Active
IC50 [8]: Not Active

[N-]=[N+]=CC(=O)OC[C@H](N)C(=O)O [AZASERINE]
IC50 [1]: Not Active
IC50 [2]: Not Active
IC50 [3]: Not Active
Ki [3]: Not Active
IC50 [4]: Not Active
Ki [4]: Not Active
IC50 [5]: Not Active
IC50 [6]: Not Active
IC50 [7]: Not Active
IC50 [8]: Not Active

Cc1cnc(C(=O)NCCc2ccc(S(=O)(=O)NC(=O)NC3CCCCC3)cc2)cn1 [GLIPIZIDE]
IC50 [1]: Not Active
IC50 [2]: Not Active
IC50 [3]: Not Active
Ki [3]: Not Active
IC50 [4]: Not Active
Ki [4]: Not Active
IC50 [5]: Not Active
IC50 [6]: Not Active
IC50 [7]: Not Active
